Reference: publication PMC8617627, “Novel DYRK1A Inhibitor Rescues Learning and Memory Deficits in a Mouse Model of Down Syndrome” (Pharmaceuticals, 2021)
Where two headings read alike, the source gives them in different places.

How the values were obtained:
Assay in all cases: Kinase profile (33P ATP filter binding)
Assay type in all cases: biochemical
[1] = biological target: T1, MST2 (Homo sapiens, UniProt Q13188); settings: read-out: Remaining protein kinase activity
T1 sequence (Q13188 1-491): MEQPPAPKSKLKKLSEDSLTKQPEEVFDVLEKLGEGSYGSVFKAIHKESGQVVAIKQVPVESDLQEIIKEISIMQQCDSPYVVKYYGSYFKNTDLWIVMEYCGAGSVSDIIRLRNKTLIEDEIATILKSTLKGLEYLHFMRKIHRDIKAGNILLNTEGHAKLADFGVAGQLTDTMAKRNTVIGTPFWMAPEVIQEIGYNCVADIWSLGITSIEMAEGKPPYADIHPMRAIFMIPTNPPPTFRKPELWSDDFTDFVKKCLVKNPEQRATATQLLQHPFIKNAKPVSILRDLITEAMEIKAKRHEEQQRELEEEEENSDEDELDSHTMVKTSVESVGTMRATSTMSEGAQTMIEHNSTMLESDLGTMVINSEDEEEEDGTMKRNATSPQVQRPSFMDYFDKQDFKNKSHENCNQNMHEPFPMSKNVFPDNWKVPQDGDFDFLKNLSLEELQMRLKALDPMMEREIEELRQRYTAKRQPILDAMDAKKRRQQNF
Experimental: (§1) The compounds were diluted to the appropriate concentration. The compounds were added to a “mother plate” consisting of samples, controls, and blanks. These serve as the source for “daughter plates” which are stored at −20 °C until assay initiation. Protein Kinases: Enzyme/Substrate mixture was added to the compound, and the compounds were incubated for five minutes at room temperature (RT). ^33P ATP was added to the compounds to initiate the assay. Orthophosphoric acid was added to the compounds to halt the assay. Assay components were harvested onto P81 filter plates, filter plates were air-dried, scintillation fluid was added to plates, and counts were read on a Topcount NXT. A mean percentage activity was calculated.

[2] = biological target: SIK3 (Homo sapiens, UniProt Q9Y2K2)
Chain of SIK3 (Q9Y2K2 whole entry): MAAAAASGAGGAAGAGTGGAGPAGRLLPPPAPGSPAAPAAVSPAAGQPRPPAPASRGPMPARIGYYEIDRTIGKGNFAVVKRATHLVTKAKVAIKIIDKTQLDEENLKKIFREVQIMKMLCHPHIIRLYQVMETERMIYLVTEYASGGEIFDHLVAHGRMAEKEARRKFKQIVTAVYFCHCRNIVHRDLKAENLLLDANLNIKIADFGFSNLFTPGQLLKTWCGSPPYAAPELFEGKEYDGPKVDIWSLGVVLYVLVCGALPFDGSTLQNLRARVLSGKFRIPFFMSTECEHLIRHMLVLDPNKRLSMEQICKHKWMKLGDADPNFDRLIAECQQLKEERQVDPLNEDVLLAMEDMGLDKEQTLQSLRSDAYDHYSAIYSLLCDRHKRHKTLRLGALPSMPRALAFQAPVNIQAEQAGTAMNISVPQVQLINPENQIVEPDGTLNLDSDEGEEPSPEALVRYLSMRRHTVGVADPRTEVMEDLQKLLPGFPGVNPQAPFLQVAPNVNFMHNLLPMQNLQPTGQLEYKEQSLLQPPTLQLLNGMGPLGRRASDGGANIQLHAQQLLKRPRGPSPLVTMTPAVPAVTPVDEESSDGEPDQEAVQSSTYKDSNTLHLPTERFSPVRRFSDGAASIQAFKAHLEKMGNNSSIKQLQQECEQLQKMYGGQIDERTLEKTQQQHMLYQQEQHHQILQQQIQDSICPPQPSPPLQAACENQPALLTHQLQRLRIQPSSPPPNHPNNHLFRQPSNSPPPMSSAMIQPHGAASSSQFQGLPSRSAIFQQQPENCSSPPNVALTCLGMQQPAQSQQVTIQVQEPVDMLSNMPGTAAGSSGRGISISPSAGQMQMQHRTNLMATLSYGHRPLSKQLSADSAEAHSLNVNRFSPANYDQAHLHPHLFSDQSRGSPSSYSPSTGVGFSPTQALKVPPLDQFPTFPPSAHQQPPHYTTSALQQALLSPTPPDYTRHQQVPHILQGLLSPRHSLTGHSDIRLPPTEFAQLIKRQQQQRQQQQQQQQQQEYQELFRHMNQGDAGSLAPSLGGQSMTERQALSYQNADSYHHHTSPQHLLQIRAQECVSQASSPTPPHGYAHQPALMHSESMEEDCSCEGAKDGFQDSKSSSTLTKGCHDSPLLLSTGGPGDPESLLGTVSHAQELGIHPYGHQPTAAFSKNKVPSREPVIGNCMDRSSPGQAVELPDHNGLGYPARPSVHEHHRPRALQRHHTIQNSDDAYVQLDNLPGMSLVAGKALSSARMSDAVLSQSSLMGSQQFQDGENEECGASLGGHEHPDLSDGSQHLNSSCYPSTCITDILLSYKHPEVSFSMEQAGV
Experimental: as §1

[3] = biological target: MLK3 (Homo sapiens, UniProt Q16584)
Chain of MLK3 (Q16584 whole entry): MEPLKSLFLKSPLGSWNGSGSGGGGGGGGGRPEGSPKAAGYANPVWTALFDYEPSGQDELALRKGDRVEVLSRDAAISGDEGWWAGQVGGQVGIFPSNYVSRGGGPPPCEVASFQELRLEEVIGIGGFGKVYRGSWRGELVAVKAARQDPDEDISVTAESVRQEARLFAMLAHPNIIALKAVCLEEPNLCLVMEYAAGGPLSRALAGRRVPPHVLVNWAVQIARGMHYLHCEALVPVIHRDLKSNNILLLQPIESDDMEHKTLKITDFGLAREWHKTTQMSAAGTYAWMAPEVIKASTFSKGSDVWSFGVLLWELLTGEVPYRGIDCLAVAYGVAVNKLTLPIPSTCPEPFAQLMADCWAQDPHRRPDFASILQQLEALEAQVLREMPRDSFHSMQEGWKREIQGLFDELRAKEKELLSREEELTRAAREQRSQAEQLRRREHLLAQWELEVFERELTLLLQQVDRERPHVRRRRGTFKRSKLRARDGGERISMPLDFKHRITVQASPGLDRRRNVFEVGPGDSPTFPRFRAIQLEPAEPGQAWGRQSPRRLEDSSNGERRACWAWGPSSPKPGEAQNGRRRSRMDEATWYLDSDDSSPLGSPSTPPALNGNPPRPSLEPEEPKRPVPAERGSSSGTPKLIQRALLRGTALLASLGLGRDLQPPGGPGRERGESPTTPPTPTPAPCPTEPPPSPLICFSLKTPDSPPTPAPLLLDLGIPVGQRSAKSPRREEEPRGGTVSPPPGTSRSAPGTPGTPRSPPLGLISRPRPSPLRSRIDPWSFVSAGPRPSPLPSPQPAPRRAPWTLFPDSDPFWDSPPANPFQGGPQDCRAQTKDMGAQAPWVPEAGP
Experimental: as §1

[4] = biological target: SRPK1 (Homo sapiens, UniProt Q96SB4); settings: read-out: Remaining protein kinase activity
Chain of SRPK1 (Q96SB4 whole entry): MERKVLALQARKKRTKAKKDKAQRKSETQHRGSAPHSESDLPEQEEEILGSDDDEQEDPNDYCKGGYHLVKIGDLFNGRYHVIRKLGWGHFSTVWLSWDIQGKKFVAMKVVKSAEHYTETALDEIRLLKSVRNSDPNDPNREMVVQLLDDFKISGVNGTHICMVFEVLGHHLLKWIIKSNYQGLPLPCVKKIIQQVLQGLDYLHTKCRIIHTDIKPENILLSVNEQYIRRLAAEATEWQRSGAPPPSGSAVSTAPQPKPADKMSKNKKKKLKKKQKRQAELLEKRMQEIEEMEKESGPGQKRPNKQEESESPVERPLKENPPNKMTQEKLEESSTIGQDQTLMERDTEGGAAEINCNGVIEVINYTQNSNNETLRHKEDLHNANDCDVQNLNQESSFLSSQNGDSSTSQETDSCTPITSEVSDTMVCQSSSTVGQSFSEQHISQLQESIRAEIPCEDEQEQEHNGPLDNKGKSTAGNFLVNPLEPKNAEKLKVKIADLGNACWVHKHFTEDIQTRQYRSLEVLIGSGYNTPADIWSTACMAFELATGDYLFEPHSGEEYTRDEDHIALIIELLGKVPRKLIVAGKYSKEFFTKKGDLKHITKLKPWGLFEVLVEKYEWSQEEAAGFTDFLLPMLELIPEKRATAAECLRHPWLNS
Experimental: as §1

[5] = biological target: T2, LKB1 (Homo sapiens, UniProt Q15831); settings: read-out: Remaining protein kinase activity
T2 sequence (Q15831 1-433): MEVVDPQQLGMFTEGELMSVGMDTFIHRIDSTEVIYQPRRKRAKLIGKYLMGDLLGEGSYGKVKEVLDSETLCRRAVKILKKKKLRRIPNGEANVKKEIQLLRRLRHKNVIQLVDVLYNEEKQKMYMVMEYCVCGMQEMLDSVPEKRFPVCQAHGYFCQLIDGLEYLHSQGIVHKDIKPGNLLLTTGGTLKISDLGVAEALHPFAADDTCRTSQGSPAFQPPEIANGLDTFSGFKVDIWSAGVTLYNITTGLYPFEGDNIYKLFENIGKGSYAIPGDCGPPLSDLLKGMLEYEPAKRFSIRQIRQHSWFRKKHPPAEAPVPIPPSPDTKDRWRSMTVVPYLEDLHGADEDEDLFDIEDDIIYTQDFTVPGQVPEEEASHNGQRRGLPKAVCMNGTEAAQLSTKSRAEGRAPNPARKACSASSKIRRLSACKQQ
T2 sequence (Q7RTN6 1-431 partner): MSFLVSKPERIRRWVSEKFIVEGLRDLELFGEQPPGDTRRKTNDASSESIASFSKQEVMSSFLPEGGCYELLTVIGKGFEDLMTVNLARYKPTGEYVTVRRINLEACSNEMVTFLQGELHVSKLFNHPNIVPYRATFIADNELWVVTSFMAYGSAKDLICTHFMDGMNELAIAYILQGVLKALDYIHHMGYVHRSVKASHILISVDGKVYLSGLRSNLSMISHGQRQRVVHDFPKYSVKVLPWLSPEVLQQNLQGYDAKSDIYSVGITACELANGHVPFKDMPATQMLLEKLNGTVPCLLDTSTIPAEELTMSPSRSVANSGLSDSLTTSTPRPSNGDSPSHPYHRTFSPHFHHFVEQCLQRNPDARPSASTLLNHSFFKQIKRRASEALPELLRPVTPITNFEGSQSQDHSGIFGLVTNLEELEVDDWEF
T2 sequence (Q9Y376 1-341 partner): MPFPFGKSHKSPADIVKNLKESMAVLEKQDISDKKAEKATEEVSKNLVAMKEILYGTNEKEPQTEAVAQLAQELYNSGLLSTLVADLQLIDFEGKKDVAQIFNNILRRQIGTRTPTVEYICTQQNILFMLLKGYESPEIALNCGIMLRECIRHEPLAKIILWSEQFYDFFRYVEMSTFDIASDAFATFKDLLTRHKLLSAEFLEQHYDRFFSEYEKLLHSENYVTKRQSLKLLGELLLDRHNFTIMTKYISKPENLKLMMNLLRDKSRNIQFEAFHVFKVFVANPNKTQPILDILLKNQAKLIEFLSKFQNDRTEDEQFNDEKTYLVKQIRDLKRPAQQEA
Experimental: as §1

[6] = biological target: PLK1 (Homo sapiens, UniProt P53350); settings: read-out: Remaining protein kinase activity
Chain of PLK1 (P53350 whole entry): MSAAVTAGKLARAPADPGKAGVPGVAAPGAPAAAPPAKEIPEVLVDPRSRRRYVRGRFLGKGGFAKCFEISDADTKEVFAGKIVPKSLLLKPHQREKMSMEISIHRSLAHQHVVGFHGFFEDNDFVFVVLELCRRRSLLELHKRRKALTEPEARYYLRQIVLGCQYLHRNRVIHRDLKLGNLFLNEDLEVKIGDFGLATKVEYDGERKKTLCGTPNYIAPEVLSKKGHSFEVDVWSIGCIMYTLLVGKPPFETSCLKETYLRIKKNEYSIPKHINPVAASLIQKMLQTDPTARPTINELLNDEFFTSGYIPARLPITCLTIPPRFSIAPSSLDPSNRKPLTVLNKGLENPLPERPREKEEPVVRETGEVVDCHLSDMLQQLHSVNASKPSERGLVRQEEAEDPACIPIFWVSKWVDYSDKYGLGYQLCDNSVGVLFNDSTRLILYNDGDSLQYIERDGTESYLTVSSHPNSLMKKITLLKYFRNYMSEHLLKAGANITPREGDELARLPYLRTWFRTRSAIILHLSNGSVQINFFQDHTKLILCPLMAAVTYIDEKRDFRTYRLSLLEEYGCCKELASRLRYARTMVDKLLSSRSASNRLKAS
Experimental: as §1

Row | SMILES | remaining activity at 1 µM [1] [%] | remaining activity at 100 µM [1] [%] | Remaining protein kinase activity ([2]; 1 μM) [%] | Remaining protein kinase activity ([2]; 100 μM) [%] | Remaining protein kinase activity ([3]; 1 μM) [%] | Remaining protein kinase activity ([3]; 100 μM) [%] | remaining activity at 1 µM [4] [%] | remaining activity at 100 µM [4] [%] | remaining activity at 1 µM [5] [%] | remaining activity at 100 µM [5] [%] | remaining activity at 1 µM [6] [%] | remaining activity at 100 µM [6] [%] | remaining activity at 1 µM ([1]; MST2, 1 μM) [%] | remaining activity at 100 µM ([1]; MST2, 100 μM) [%] | remaining activity at 1 µM ([4]; SRPK1, 1 μM) [%] | remaining activity at 100 µM ([4]; SRPK1, 100 μM) [%] | remaining activity at 1 µM ([5]; LKB1, 1 μM) [%] | remaining activity at 100 µM ([5]; LKB1, 100 μM) [%] | remaining activity at 1 µM ([6]; PLK1, 1 μM) [%] | remaining activity at 100 µM ([6]; PLK1, 100 μM) [%]
1 | COc1ccc2sc(-c3cncc(NC(C)=O)c3)nc2c1 [PST-001, N-(5-(5-Methoxybenzo[d]thiazol-2-yl)pyridin-3-yl)acetamide] | 120 | 54 | 114 | 78 | 109 | 60 | 115 | 108 | 123 | 150 | 112 | 115 |  |  |  |  |  |  |  | 
2 | COc1ccc2sc(-c3cncc(N)c3)nc2c1 [compound 1, 5-(5-Methoxybenzo[d]thiazol-2-yl)pyridin-3-amine] |  |  | 106 | 19 | 101 | 29 |  |  |  |  |  |  | 124 | 32 | 108 | 55 | 109 | 161 | 99 | 73
